According to US11033642B2, “Multidentate bifunctional chelating agents for radionuclide complexation in diagnostics and therapy” (UNIVERSITAT ZURICH, priority 2014, dated 2021):

Experiment: Solubility observed during complexation
Type: physicochemical
Description: Ligand II is not soluble either in 0.1 M HCl or in H2O. The complexation was carried out in MeOH using zirconium (IV) acetylacetonate [Zr(acac)4]. A mixture of ligand II (50 mg, 0.058 mmol) and Zr(acac)4 (28.3 mg, 0.058 mmol) in 15 mL MeOH was heated at reflux for 15 h with continuous stirring under N2 atmosphere. The solvent was then removed and the residue was then washed with Et2O (20 mL) and acetone (10 mL). The compound was obtained as off white solid (48 mg, 87%). The compound is it not soluble in common organic solvents including DMSO. […] Therefore due to the limited solubility NMR spectra of the compound could not be obtained. However, the formation of the complex can be confirmed using LC-MS. Elemental analysis calculated for C38H64N8O14Zr.6H2O.(CH3)2CO3C, 44.19, H, 7.42, N, 10.06. Found C, 44.11, H, 7.04, N, 10.16.

CC(=O)N(O)CCCCCNC(=O)CCC(=O)N(O)CCCCCNC(=O)CCC(=O)N(O)CCCCCNC(=O)CCC(=O)N(O)CCCCCNC(=O)CCC(=O)O [Ligand II, 4-[5-[[4-[5-[[4-[5-[[4-[5-[acetyl(hydroxy)amino]pentylamino]-4-oxo-butanoyl]-hydroxy-amino]pentylamino]-4-oxo-butanoyl]-hydroxy-amino]pentylamino]-4-oxo-butanoyl]-hydroxy-amino]pentylamino]-4-oxo-butanoic acid]
solubility in 0.1 M HCl (0.1 M HCl): not soluble | solubility in H2O (H2O): not soluble
